Experimental data published in PubChem BioAssay (NCI).
≈ marks a conversion by molar mass, not a printed value.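 Growth conditions: 96-well plates. Treatment: test compound, 48 hours, 5 concentrations. Analysis: linear interpolation between bracketing concentrations; unreached endpoints set to highest concentration. Here, GI50 denotes the concentration required for 50% inhibition of growth. TGI denotes the concentration required for complete inhibition of growth.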

How the values were obtained:
Assay in all cases: DTP human tumour cell line panel, 48 h
HOP-62 NSCLC = test system: HOP-62 NSCLC
IGROV1 ovarian = test system: IGROV1 ovarian
SK-MEL-28 melanoma = test system: SK-MEL-28 melanoma
SK-MEL-5 melanoma = test system: SK-MEL-5 melanoma
SR leukemia = test system: SR leukemia
SW-620 colon = test system: SW-620 colon
UACC-257 melanoma = test system: UACC-257 melanoma
UACC-62 melanoma = test system: UACC-62 melanoma
SK-MEL-2 melanoma = test system: SK-MEL-2 melanoma
MDA-MB-435 = test system: MDA-MB-435

C/C(=N\NC(N)=S)c1ccc(/C(C)=N/NC(N)=S)cc1
TGI (HOP-62 NSCLC): > 100 µM
TGI (IGROV1 ovarian): > 100 µM
TGI (SK-MEL-28 melanoma): > 100 µM
TGI (SK-MEL-5 melanoma): > 100 µM
TGI (SR leukemia): > 100 µM
TGI (SW-620 colon): > 100 µM
TGI (UACC-257 melanoma): > 100 µM
TGI (UACC-62 melanoma): > 100 µM

O=S(=O)(O)C(F)(F)C(F)(F)C(F)(F)C(F)(F)F
TGI (HOP-62 NSCLC): > 100 µM
TGI (IGROV1 ovarian): > 100 µM
TGI (SK-MEL-2 melanoma): > 100 µM
TGI (SK-MEL-5 melanoma): > 100 µM
TGI (SW-620 colon): > 100 µM
TGI (UACC-257 melanoma): > 100 µM
TGI (UACC-62 melanoma): > 100 µM

C/C(=N\NC(N)=S)c1ccc2c(c1)OCO2
TGI (HOP-62 NSCLC): > 100 µM
TGI (IGROV1 ovarian): > 100 µM
TGI (SK-MEL-2 melanoma): > 100 µM
TGI (SK-MEL-28 melanoma): > 100 µM
TGI (SK-MEL-5 melanoma): > 100 µM
TGI (SR leukemia): > 100 µM
TGI (SW-620 colon): > 100 µM
TGI (UACC-257 melanoma): > 100 µM
TGI (UACC-62 melanoma): > 100 µM

Cc1cccc(C(C)(C)C)c1NC(=O)CC1C(=O)Nc2ccccc2S1=O (stereo not drawn)
TGI (HOP-62 NSCLC): > 100 µM
TGI (SK-MEL-2 melanoma): > 100 µM
TGI (SK-MEL-28 melanoma): > 100 µM
TGI (SR leukemia): 87.8 µM
TGI (SW-620 colon): > 100 µM
TGI (UACC-257 melanoma): > 100 µM

O=[N+]([O-])c1ccc(Cc2nc3ccccc3s2)cc1
TGI (HOP-62 NSCLC): > 100 µM
TGI (IGROV1 ovarian): > 100 µM
TGI (SK-MEL-2 melanoma): > 100 µM
TGI (SK-MEL-28 melanoma): > 100 µM
TGI (SK-MEL-5 melanoma): > 100 µM
TGI (SR leukemia): > 100 µM
TGI (SW-620 colon): > 100 µM
TGI (UACC-257 melanoma): > 100 µM
TGI (UACC-62 melanoma): > 100 µM

N=C(c1ccccc1)N1CCCCC1
TGI (HOP-62 NSCLC): > 100 µM
TGI (SK-MEL-2 melanoma): > 100 µM
TGI (SK-MEL-28 melanoma): > 100 µM
TGI (SR leukemia): > 100 µM
TGI (SW-620 colon): > 100 µM
TGI (UACC-257 melanoma): > 100 µM

CC(C)=CC(=O)Cc1nc2ccccc2[nH]c1=O
TGI (HOP-62 NSCLC): > 100 µM
TGI (IGROV1 ovarian): > 100 µM
TGI (SK-MEL-2 melanoma): > 100 µM
TGI (SK-MEL-28 melanoma): > 100 µM
TGI (SK-MEL-5 melanoma): > 100 µM
TGI (SR leukemia): > 100 µM
TGI (SW-620 colon): > 100 µM
TGI (UACC-257 melanoma): > 100 µM
TGI (UACC-62 melanoma): > 100 µM

OCCN(CO)CN(CN(CO)CCO)c1nc(N(CN(CO)CCO)CN(CO)CCO)nc(N(CN(CO)CCO)CN(CO)CCO)n1
GI50 (HOP-62 NSCLC): 1.47 ng/mL
TGI (HOP-62 NSCLC): 4.38 ng/mL
GI50 (IGROV1 ovarian): 1.75 ng/mL
TGI (IGROV1 ovarian): 5.46 ng/mL
GI50 (SK-MEL-28 melanoma): 1.05 ng/mL
TGI (SK-MEL-28 melanoma): 1.88 ng/mL
GI50 (SR leukemia): 0.742 ng/mL (≈ 0.996 nM)
TGI (SR leukemia): 2.62 ng/mL
GI50 (SW-620 colon): 0.55 ng/mL
TGI (SW-620 colon): 6.27 ng/mL
GI50 (UACC-257 melanoma): 1.42 ng/mL
TGI (UACC-257 melanoma): 3.21 ng/mL
GI50 (UACC-62 melanoma): 1.26 ng/mL
TGI (UACC-62 melanoma): 3.02 ng/mL

COc1ccc(C2(CN(C)C)COc3cc(OC)c(OC)cc3C2=O)cc1OC (stereo not drawn)
TGI (HOP-62 NSCLC): > 100 µM
TGI (IGROV1 ovarian): > 100 µM
TGI (SK-MEL-28 melanoma): > 100 µM
TGI (SK-MEL-5 melanoma): 60.7 µM
TGI (SR leukemia): > 100 µM
TGI (SW-620 colon): 45.8 µM
TGI (UACC-257 melanoma): > 100 µM
TGI (UACC-62 melanoma): > 100 µM

CCN=C1NN=C(c2ccccc2)c2cc(Cl)ccc2N1
TGI (HOP-62 NSCLC): 48.2 µM
TGI (IGROV1 ovarian): 70 µM
TGI (SK-MEL-2 melanoma): 32.8 µM
TGI (SK-MEL-28 melanoma): 33.7 µM
TGI (SK-MEL-5 melanoma): 30.7 µM
TGI (SW-620 colon): 63.8 µM
TGI (UACC-257 melanoma): 34.3 µM
TGI (UACC-62 melanoma): 31.7 µM

COc1cc2c(cc1OC)-c1c(cnn1C1OC(COC(C)=O)C(OC(C)=O)C(OC(C)=O)C1OC(C)=O)CC2 (stereo not drawn)
TGI (HOP-62 NSCLC): > 100 µM
TGI (IGROV1 ovarian): > 100 µM
TGI (SK-MEL-2 melanoma): > 100 µM
TGI (SK-MEL-28 melanoma): > 100 µM
TGI (SK-MEL-5 melanoma): > 100 µM
TGI (SR leukemia): > 28.7 µM
TGI (SW-620 colon): > 100 µM
TGI (UACC-257 melanoma): > 100 µM
TGI (UACC-62 melanoma): > 100 µM

Cc1cccc(C(C)O)n1 (stereo not drawn)
TGI (HOP-62 NSCLC): > 100 µM
TGI (IGROV1 ovarian): > 100 µM
TGI (SK-MEL-2 melanoma): > 100 µM
TGI (SK-MEL-28 melanoma): > 100 µM
TGI (SK-MEL-5 melanoma): > 100 µM
TGI (SR leukemia): > 100 µM
TGI (SW-620 colon): > 100 µM
TGI (UACC-257 melanoma): > 100 µM
TGI (UACC-62 melanoma): > 100 µM

N#CCCc1nc2ccc(Br)cc2c(=O)n1-c1ccc(O)c([N+](=O)[O-])c1
TGI (HOP-62 NSCLC): > 100 µM
TGI (IGROV1 ovarian): 47.7 µM
TGI (SK-MEL-2 melanoma): 34.7 µM
TGI (SK-MEL-28 melanoma): 34.8 µM
TGI (SK-MEL-5 melanoma): 36.3 µM
TGI (SW-620 colon): 46.8 µM
TGI (UACC-257 melanoma): 74.3 µM
TGI (UACC-62 melanoma): 38.5 µM

O=C(Nc1ccc(C(F)(F)F)cc1[N+](=O)[O-])C(=O)C(C(=O)c1ccc2ccccc2c1)C1OC(=O)c2ccccc21 (stereo not drawn)
TGI (HOP-62 NSCLC): 14.8 µM
TGI (IGROV1 ovarian): > 66.3 µM
TGI (SK-MEL-2 melanoma): 29.9 µM
TGI (SK-MEL-28 melanoma): 18 µM
TGI (SK-MEL-5 melanoma): 18.8 µM
TGI (SR leukemia): > 100 µM
TGI (SW-620 colon): 21.9 µM
TGI (UACC-257 melanoma): 24 µM
TGI (UACC-62 melanoma): 20.4 µM

CCc1ccccc1NC(=O)CCc1nc(=S)[nH][nH]1
TGI (HOP-62 NSCLC): > 100 µM
TGI (IGROV1 ovarian): > 100 µM
TGI (SK-MEL-2 melanoma): > 100 µM
TGI (SK-MEL-28 melanoma): > 100 µM
TGI (SK-MEL-5 melanoma): > 100 µM
TGI (SR leukemia): > 100 µM
TGI (SW-620 colon): > 100 µM
TGI (UACC-257 melanoma): > 100 µM
TGI (UACC-62 melanoma): > 100 µM

CSC(=S)N(C)c1nc(=[N+](C)C)ss1
TGI (HOP-62 NSCLC): > 100 µM
TGI (IGROV1 ovarian): > 100 µM
TGI (SK-MEL-2 melanoma): > 100 µM
TGI (SK-MEL-28 melanoma): > 100 µM
TGI (SK-MEL-5 melanoma): > 100 µM
TGI (SR leukemia): > 100 µM
TGI (SW-620 colon): > 100 µM
TGI (UACC-257 melanoma): > 100 µM
TGI (UACC-62 melanoma): > 100 µM

Cc1ccccc1C(C#N)/C(=N/NC(=O)c1cc2ccccc2cc1O)C(=O)Nc1cccc(Cl)c1 (stereo not drawn)
TGI (HOP-62 NSCLC): > 100 µM
TGI (IGROV1 ovarian): 65.3 µM
TGI (SK-MEL-2 melanoma): 76 µM
TGI (SK-MEL-28 melanoma): > 100 µM
TGI (SK-MEL-5 melanoma): 27.4 µM
TGI (SR leukemia): 84.5 µM
TGI (SW-620 colon): > 100 µM
TGI (UACC-257 melanoma): 76.1 µM
TGI (UACC-62 melanoma): 18.1 µM

C[C@]12CC[C@H]3[C@@H](CC=C4C[C@@H](O)CC[C@@]43C)[C@@H]1C/C(=C\c1cccc(OCCN3CCOCC3)c1)[C@@H]2O
GI50 (HOP-62 NSCLC): > 100 µM
TGI (HOP-62 NSCLC): > 100 µM
GI50 (IGROV1 ovarian): 46 µM
TGI (IGROV1 ovarian): > 100 µM
GI50 (MDA-MB-435): 85.1 µM
TGI (MDA-MB-435): > 100 µM
GI50 (SK-MEL-2 melanoma): 55.2 µM
TGI (SK-MEL-2 melanoma): > 100 µM
GI50 (SK-MEL-28 melanoma): 22.4 µM
TGI (SK-MEL-28 melanoma): 56.4 µM
GI50 (SK-MEL-5 melanoma): 4.98 µM
TGI (SK-MEL-5 melanoma): 23.3 µM
GI50 (SW-620 colon): 28.3 µM
TGI (SW-620 colon): > 100 µM
GI50 (UACC-257 melanoma): 16.6 µM
TGI (UACC-257 melanoma): 84.3 µM
GI50 (UACC-62 melanoma): > 100 µM
TGI (UACC-62 melanoma): > 100 µM

COc1cc2c(/C=C3/C(=O)Nc4ccccc43)c(Cl)n(Cc3ccccc3)c2cc1C
GI50 (HOP-62 NSCLC): > 100 µM
TGI (HOP-62 NSCLC): > 100 µM
GI50 (IGROV1 ovarian): > 100 µM
TGI (IGROV1 ovarian): > 100 µM
GI50 (MDA-MB-435): 64.4 µM
TGI (MDA-MB-435): > 100 µM
GI50 (SK-MEL-2 melanoma): > 100 µM
TGI (SK-MEL-2 melanoma): > 100 µM
GI50 (SK-MEL-5 melanoma): 42.2 µM
TGI (SK-MEL-5 melanoma): > 100 µM
GI50 (SW-620 colon): > 100 µM
TGI (SW-620 colon): > 100 µM
GI50 (UACC-257 melanoma): > 100 µM
TGI (UACC-257 melanoma): > 100 µM
GI50 (UACC-62 melanoma): > 100 µM
TGI (UACC-62 melanoma): > 100 µM

CCCOc1ccc(/C=C\c2cc(OC)c(OC)c(OC)c2)cc1
TGI (HOP-62 NSCLC): > 100 µM
TGI (IGROV1 ovarian): > 100 µM
TGI (SK-MEL-28 melanoma): > 100 µM
TGI (SK-MEL-5 melanoma): 40.7 µM
TGI (SW-620 colon): > 100 µM
TGI (UACC-257 melanoma): > 100 µM
TGI (UACC-62 melanoma): > 100 µM

CC(=O)/C=C1/c2ccccc2N(C(C)=O)C1O (stereo not drawn)
TGI (HOP-62 NSCLC): > 100 µM
TGI (IGROV1 ovarian): > 100 µM
TGI (SK-MEL-2 melanoma): > 100 µM
TGI (SK-MEL-28 melanoma): > 100 µM
TGI (SR leukemia): > 100 µM
TGI (SW-620 colon): > 100 µM
TGI (UACC-257 melanoma): > 100 µM
TGI (UACC-62 melanoma): > 100 µM

O=C(Oc1ccccc1)c1cc(O)c(O)c(O)c1
GI50 (HOP-62 NSCLC): 5.13 µM
TGI (HOP-62 NSCLC): 70.3 µM
GI50 (IGROV1 ovarian): 11.6 µM
TGI (IGROV1 ovarian): > 100 µM
GI50 (MDA-MB-435): 13.1 µM
TGI (MDA-MB-435): > 100 µM
GI50 (SK-MEL-2 melanoma): 35.9 µM
TGI (SK-MEL-2 melanoma): > 100 µM
GI50 (SK-MEL-28 melanoma): 19.2 µM
TGI (SK-MEL-28 melanoma): > 100 µM
GI50 (SK-MEL-5 melanoma): 11.4 µM
TGI (SK-MEL-5 melanoma): 38.8 µM
GI50 (SW-620 colon): 14.3 µM
TGI (SW-620 colon): > 100 µM
GI50 (UACC-257 melanoma): 35.8 µM
TGI (UACC-257 melanoma): > 100 µM
GI50 (UACC-62 melanoma): 8.45 µM
TGI (UACC-62 melanoma): 56.4 µM
